Where a name gives a salt, the structure may show the parent alone.
Target: T1, Y537N mutant ERα receptor (Homo sapiens, UniProt P03372, Y537N)
T1 construct: generated by CRISPR/Cas9 gene editing of ESR1 gene in MCF7 cells, clone #682; endogenous in cells; host or cells: MCF7-ESR1 Y537N-682 (CRISPR/Cas9-edited MCF7, clone #682)
T1 sequence (P03372 1-595 Y537N): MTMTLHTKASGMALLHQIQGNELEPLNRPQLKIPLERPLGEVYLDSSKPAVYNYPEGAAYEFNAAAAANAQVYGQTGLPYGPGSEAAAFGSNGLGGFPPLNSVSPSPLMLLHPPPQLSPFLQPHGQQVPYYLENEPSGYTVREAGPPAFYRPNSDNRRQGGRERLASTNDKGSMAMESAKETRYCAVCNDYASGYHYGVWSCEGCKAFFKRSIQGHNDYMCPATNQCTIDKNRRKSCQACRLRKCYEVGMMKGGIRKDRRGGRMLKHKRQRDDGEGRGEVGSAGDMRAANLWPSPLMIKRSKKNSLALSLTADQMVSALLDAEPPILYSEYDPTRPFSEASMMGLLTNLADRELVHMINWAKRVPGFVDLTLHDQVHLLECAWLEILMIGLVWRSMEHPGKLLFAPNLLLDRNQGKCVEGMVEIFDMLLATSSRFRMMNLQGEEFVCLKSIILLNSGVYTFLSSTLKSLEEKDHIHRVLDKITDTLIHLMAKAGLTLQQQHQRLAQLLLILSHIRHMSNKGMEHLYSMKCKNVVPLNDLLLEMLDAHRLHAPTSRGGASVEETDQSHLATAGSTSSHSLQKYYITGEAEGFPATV
Experiment: PRα inhibition (ERα functional antagonism) cell assay in MCF7-ESR1 Y537N 682 CRISPR cells
Format: cell-based
Conditions: MCF7 Y537N 682 CRISPR cells (heterozygous mutant), 72 hours; read-out: Relative IC50, PRα inhibition (ERα functional antagonism)
From the text: The purpose of the following PRα inhibition (ERα functional antagonism) cell assay is to determine the antagonistic activity of a test compound against the Y537N mutant ERα receptor. An antagonist in this assay is expected to block the function of the ERα receptor.
Culture MCF7-ESR1 Y537N-682 (generated by CRISPR/Cas9 gene editing of ESR1 gene in MCF7 cells, clone #682) in DMEM media supplemented with 10% FBS and 1% penicillin/streptomycin antibiotics and plate the cells (prior to becoming 70% confluent) in 384-well flat-bottom plates at a density of 4,000 cells per well in DMEM phenol red free media 10% FBS (20 μL volume) (charcoal stripped). Incubate the cells overnight in a cell culture incubator (5% CO2, 95% relative humidity and 37° C.) and allow the cells to attach to the plate. The following day dose the cells with the test compound. Use an Echo 555 acoustic dispenser to prepare compound serial dilutions (1:3) in a range from 6 μM to 0.0003 μM. […]
The following day wash the cells with PBS […] (2×20 μL) and incubate with secondary antibody (20 μL/well) (1:1000 dilution, Goat anti-rabbit IgM ALEXA FLUOR™ 488) in PBS 1% BSA for 105 minutes at room temperature. […] Scan the plates with ACUMEN EXPLORER™ [Laser-scanning fluorescence microplate cytometer manufactured by TTP LABTECH LTD] to measure PRα. […]

IC50 [nM] | Compound
330 ± 116 | O=S(=O)(O)Oc1ccc2c3c(cnc2c1)-c1ccc(C(F)(F)F)cc1O[C@@H]3c1ccc(OCCN2CC(CF)C2)cc1 [Example 1, [(5R)-5-[4-[2-[3-(Fluoromethyl)azetidin-1-yl]ethoxy]phenyl]-8-(trifluoromethyl)-5H-chromeno[4,3-c]quinolin-2-yl]hydrogen sulfate]
470 ± 58 | O=C(O)[C@H]1O[C@@H](Oc2ccc3c4c(cnc3c2)-c2ccc(C(F)(F)F)cc2O[C@@H]4c2ccc(OCCN3CC(CF)C3)cc2)[C@H](O)[C@@H](O)[C@@H]1O [Example 2, (2S,3S,4S,5R,6S)-6-[[(5R)-5-[4-[2-[3-(Fluoromethyl)azetidin-1-yl]ethoxy]phenyl]-8-(trifluoromethyl)-5H-chromeno[4,3-c]quinolin-2-yl]oxy]-3,4,5-trihydroxy-tetrahydropyran-2-carboxylic acid]

— US11744844B2, “Selective estrogen receptor degraders” (Eli Lilly and Company, priority 2021, dated 2023)
